According to US10961252B2, “Quinazoline and indole compounds to treat medical disorders” (Achillion Pharmaceuticals, Inc., priority 2016, dated 2021):
Read-outs that look alike come from different tables or passages of the source.

System: Normal Human Serum (NHS)
Assay: Hemolysis assay: lysis of rabbit erythrocytes (RE) by Normal Human Serum (NHS)
Type: cell-based
Settings: rabbit erythrocyte, 0.5 h, GVB0 plus 10 mM Mg-EGTA, 37° C.
Protocol: The hemolysis assay was previously described by G. Ruiz-Gomez, et al., J. Med. Chem. (2009) 52: 6042-6052. Prior to the assay, the optimum concentration of Normal Human Serum (NHS) needed to achieve 100% lysis of rabbit erythrocytes (RE) is determined by titration. In the assay, NHS (Complement Technology) is diluted in GVB^0 Buffer (0.1% gelatin, 5 mM Veronal, 145 mM NaCl, 0.025% NaN3, pH 7.3, Complement Technology) plus 10 mM Mg-EGTA and incubated with test compound at various concentrations for 15 minutes at 37° C. RE (Complement Technology) freshly suspended in GVB^0 plus 10 mM Mg-EGTA are added to a final concentration of 1×10^8 cells/mL and reactions are incubated for 30 minutes at 37° C. Positive control reactions (100% lysis) consist of GVB^0 plus 10 mM Mg-EGTA with NHS and RE but without test compound; negative control reactions (0% lysis) consist of GVB^0 plus 10 mM Mg-EGTA with RE only. Samples are centrifuged at 2000 g for 3 minutes and supernatants collected. Absorbance at 405 nm (A405) is recorded using a microplate spectrophotometer. IC50 values are calculated by nonlinear regression from the percentage of hemolysis as a function of test compound concentration.

[1] = Table 1, hemolysis of rabbit erythrocytes with NHS, read-out: IC50
[2] = Table 3, hemolysis of rabbit erythrocytes with NHS, read-out: IC50 (Stars)

Compound: CCN[C@H](CC(=O)N1CCC(c2nc(N)c3cc(OC)c(OC)c(F)c3n2)CC1)c1ccc(F)cc1 [Compound 5, (R)-1-(4-(4-Amino-8-fluoro-6,7-dimethoxyquinazolin-2-yl)piperidin-1-yl)-3-(ethylamino)-3-(4-fluorophenyl)propan-1-one]
- IC50 [1]: 1000 to 10000 nM

Compound: COc1cc(C)c2[nH]ccc2c1CN1CC[C@@H](C)C[C@H]1c1ccc([S@](C)(=N)=O)cc1 [Compound 31, 5-Methoxy-7-methyl-4-(((2S,4R)-4-methyl-2-(4-((R)—S-methylsulfonimidoyl)phenyl)piperidin-1-yl)methyl)-H-indole]
- IC50 [2]: < 1000 nM

Compound: COc1cc(C)c2[nH]ccc2c1CN1CCC(C)CC1c1ccc(C(=O)O)c2c1CCCC2 (stereo not drawn) [Compound 28, 4-(1-((5-Methoxy-7-methyl-1H-indol-4-yl)methyl)-4-methylpiperidin-2-yl)-5,6,7,8-tetrahydronaphthalene-1-carboxylic Acid]
- IC50 [2]: < 1000 nM

Compound: CCN[C@H](CC(=O)N1CCC(c2nc(N)c3cc(OC)c(OC)c(F)c3n2)C(C(=O)OC)C1)c1ccc(F)cc1 (stereo partly drawn) [Compound 7, Methyl 4-(4-amino-8-fluoro-6,7-dimethoxyquinazolin-2-yl)-1-((R)-3-(ethylamino)-3-(4-fluorophenyl)propanoyl)piperidine-3-carboxylate]
- IC50 [1]: > 10000 nM

Compound: CCN[C@H](CC(=O)N1CC=C(c2nc(N)c3cc(OC)c(OC)c(F)c3n2)CC1)c1ccc(C#N)cc1 [Compound 17, (R)-4-(3-(4-(4-Amino-8-fluoro-6,7-dimethoxyquinazolin-2-yl)-3,6-dihydropyridin-1(2H)-yl)-1-(ethylamino)-3-oxopropyl)benzonitrile]
- IC50 (Table 2, hemolysis of rabbit erythrocytes with NHS, read-out: IC50 (Stars)): < 1000 nM

Compound: COc1cc(C)c2[nH]ncc2c1CN1CC[C@@H](C)C[C@H]1c1ccc(C(=O)O)cc1 [Compound 21, 4-((2S, 4R)-1-((5-Methoxy-7-methyl-1H-indazol-4-yl) Methyl)-4-methylpiperidin-2-yl) Benzoic Acid]
- IC50 [2]: > 10000 nM
